Experiments:
[1] = system: H5N1 virus; type: cell-based, influenza A H5N1 virus
[2] = system: Avian influenza H5N1 virus, A/Vietnam/1203/04; type: cell-based
[3] = system: H1N1 virus; type: cell-based, influenza A H1N1 virus
[4] = system: human influenza H1N1 virus, A/HK/54/98; type: cell-based
[5] = system: Primary human blood macrophages; assay: Cell viability test (MTT); conditions: 100 uM
[6] = target: T1, dihydrofolic reductase (Homo sapiens, UniProt P00374); conditions: Baker and Jordaan, J. Med. Chem. 1965; cited from earlier work
T1 sequence (P00374 1-187): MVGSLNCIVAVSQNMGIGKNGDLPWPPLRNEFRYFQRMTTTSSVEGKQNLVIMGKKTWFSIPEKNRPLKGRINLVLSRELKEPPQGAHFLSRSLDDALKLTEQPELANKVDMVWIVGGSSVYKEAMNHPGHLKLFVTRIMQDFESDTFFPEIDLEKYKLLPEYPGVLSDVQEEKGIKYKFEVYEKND

[7] = system: MDCK cells; assay: Cell viability test (MTT); conditions: 100 uM

Structure (SMILES)	level of H5N1 viruses on the surface of MDCK cells [1]	H5N1 virus titer [2]	level of H1N1 viruses on the surface of MDCK cells [3]	inhibition of replication of H1N1 virus (in words) [4]	degree of cytotoxicity (MTT, OD560-OD670 of sample / DMSO) ([5]; 72 hours, primary human blood macrophages, relative to DMSO)	cytotoxicity (in words) ([5]; primary macrophages, compared with DMSO)	inhibition of replication of H5N1 virus (in words) [2]	inhibition of dihydrofolic reductase [6]	degree of cytotoxicity (MTT, OD560-OD670 of sample / DMSO) ([7]; 72 hours, relative to DMSO)	cytotoxicity (in words) ([7]; compared with DMSO)
CCOC(=O)C1=C[C@@H](OC(CC)CC)[C@H](NC(C)=O)[C@@H](N)C1 [oseltamivir, reference compound]	lower	2.46 × 10^6 TCID50/ml	lower	–	–	–	–	–	–	–
Cc1nc(N)nc(O)c1CCCNc1ccc(/C=C/C(=O)CCl)cc1 [NSC#89853, 4-(4-((3-(2-amino-4-hydroxy-6-methyl-5-pyrimidinyl)propyl)amino)phenyl)-1-chloro-3-buten-2-one]	lower	–	lower	inhibits the replication	1.1	does not display cytotoxicity	inhibits the replication	inhibitor	2.2	does not display cytotoxicity
